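Step 1: Grow cells in 96-well plates. Step 2: Expose to compound for 48 hours at 5 concentrations. Step 3: Interpolate endpoints linearly; if unreached, use highest concentration. The concentration for 50% growth inhibition is given as GI50. Definition used: TGI = concentration required for complete inhibition of growth.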
Tests used:
Assay in all cases: inhibition of tumour cell growth, NCI panel, 48 h
M14 melanoma = tested on: M14 melanoma
CCRF-CEM leukemia = tested on: CCRF-CEM leukemia
COLO 205 colon = tested on: COLO 205 colon
NCI-H23 lung = tested on: NCI-H23 lung
SW-620 colon = tested on: SW-620 colon
HCC-2998 colon = tested on: HCC-2998 colon
SK-MEL-5 melanoma = tested on: SK-MEL-5 melanoma
SR leukemia = tested on: SR leukemia

SMILES | GI50 (M14 melanoma) [µM] | TGI (M14 melanoma) [µM] | GI50 (CCRF-CEM leukemia) [µM] | TGI (CCRF-CEM leukemia) [µM] | GI50 (COLO 205 colon) [µM] | TGI (COLO 205 colon) [µM] | GI50 (NCI-H23 lung) [µM] | TGI (NCI-H23 lung) [µM] | GI50 (SW-620 colon) [µM] | TGI (SW-620 colon) [µM] | GI50 (HCC-2998 colon) [µM] | TGI (HCC-2998 colon) [µM] | GI50 (SK-MEL-5 melanoma) [µM] | TGI (SK-MEL-5 melanoma) [µM] | GI50 (SR leukemia) [µM] | TGI (SR leukemia) [µM]
COc1ccc(C(=NN=C(N)N)c2ccc(OC)cc2)cc1 | 2.35 | 6.36 | 5.18 | 42.6 | 1.79 | 3.97 | 3.87 | 17.8 | 3.11 | 12.4 | 3.53 | 14.4 | 2.25 | 5.76 |  | 
COc1cc([N+](=O)[O-])c(OC)cc1-c1nc2sc(C)cn2c1/C(N)=N/C(=N)N | > 100 | > 100 | 18 | > 100 | > 100 | > 100 | 89.6 | > 100 | 5.78 | > 100 |  |  | 28.3 | > 100 |  | 
N#Cc1c(NC(=O)c2ccc(F)cc2)sc2c1CCCC2 | > 25 | > 25 | > 25 | > 25 | > 25 | > 25 | > 25 | > 25 | > 25 | > 25 | > 25 | > 25 | > 25 | > 25 |  | 
Cc1cnc2oc3ccc(O)cc3c2c1-c1ccccc1 | > 100 | > 100 | > 100 | > 100 | > 100 | > 100 | 21.6 | > 100 | > 100 | > 100 |  |  | 35.8 | > 100 | > 100 | > 100
N#CC(C#N)=C1CCOc2ccc(F)cc21 | 19.5 | 45.9 |  |  | 21.7 | 67.6 | 14.8 | 28.7 | 29.6 | > 100 |  |  | 33.2 | > 100 | 12.6 | 25.2
COC(=O)[C@]12CC[C@@H](C)[C@H](C)[C@@H]1C1=CC[C@@H]3[C@@]4(C)C[C@@H](OC(=O)/C=C/c5ccccc5)[C@H](O)[C@@](C)(CO)[C@@H]4[C@H](O)C[C@@]3(C)[C@]1(C)CC2 | 2.65 | 8.58 | 2.88 | 10.4 | 1.91 | 4.12 | 2.8 | 10.2 | 1.93 | 4.2 | 2.13 | 4.88 | 1.93 | 4.23 |  | 
CCCCCCn1c(SC)nc(COC(=O)NC)c1COC(=O)NC |  | 38.8 |  |  |  | 29.2 |  | 41.2 |  | 64.4 |  |  |  | 30.3 |  | 71.7
